From patent publication US10858364B2, “Imidazopyrazine inhibitors of Bruton's tyrosine kinase” (Acerta Pharma B.V., priority 2016, dated 2020)

Columns and labels:
EGFR = EGFR (Homo sapiens (Human), UniProt P00533); assay: EGFR Z'-LYTE kinase assay; type: biochemical; settings: 1 h pre-incubation, Km ATP
Description: BMX, TXK, EGFR, ERBB2, ERBB4, JAK3, BLK kinase activity was measured using the Z′-LYTE assay at Thermo Fisher. A 10-point dose response (final concentration in assay ranged from 10 μM to 0.5 nM in 3-fold dilution per dilution step) was generated with 1 h incubation of the test compound with the kinase prior to initiation of the kinase reaction by the addition of ATP. ATP concentration in the assay was Km ATP for the different kinases. IC50 values are determined by curve fitting of the experimental results at Thermo Fisher.

ERBB2 = ERBB2 (Homo sapiens (Human), UniProt P04626); assay: DiscoveRx Kd dose response, ERBB2; type: binding
ERBB2, sequence (P04626 23-1255): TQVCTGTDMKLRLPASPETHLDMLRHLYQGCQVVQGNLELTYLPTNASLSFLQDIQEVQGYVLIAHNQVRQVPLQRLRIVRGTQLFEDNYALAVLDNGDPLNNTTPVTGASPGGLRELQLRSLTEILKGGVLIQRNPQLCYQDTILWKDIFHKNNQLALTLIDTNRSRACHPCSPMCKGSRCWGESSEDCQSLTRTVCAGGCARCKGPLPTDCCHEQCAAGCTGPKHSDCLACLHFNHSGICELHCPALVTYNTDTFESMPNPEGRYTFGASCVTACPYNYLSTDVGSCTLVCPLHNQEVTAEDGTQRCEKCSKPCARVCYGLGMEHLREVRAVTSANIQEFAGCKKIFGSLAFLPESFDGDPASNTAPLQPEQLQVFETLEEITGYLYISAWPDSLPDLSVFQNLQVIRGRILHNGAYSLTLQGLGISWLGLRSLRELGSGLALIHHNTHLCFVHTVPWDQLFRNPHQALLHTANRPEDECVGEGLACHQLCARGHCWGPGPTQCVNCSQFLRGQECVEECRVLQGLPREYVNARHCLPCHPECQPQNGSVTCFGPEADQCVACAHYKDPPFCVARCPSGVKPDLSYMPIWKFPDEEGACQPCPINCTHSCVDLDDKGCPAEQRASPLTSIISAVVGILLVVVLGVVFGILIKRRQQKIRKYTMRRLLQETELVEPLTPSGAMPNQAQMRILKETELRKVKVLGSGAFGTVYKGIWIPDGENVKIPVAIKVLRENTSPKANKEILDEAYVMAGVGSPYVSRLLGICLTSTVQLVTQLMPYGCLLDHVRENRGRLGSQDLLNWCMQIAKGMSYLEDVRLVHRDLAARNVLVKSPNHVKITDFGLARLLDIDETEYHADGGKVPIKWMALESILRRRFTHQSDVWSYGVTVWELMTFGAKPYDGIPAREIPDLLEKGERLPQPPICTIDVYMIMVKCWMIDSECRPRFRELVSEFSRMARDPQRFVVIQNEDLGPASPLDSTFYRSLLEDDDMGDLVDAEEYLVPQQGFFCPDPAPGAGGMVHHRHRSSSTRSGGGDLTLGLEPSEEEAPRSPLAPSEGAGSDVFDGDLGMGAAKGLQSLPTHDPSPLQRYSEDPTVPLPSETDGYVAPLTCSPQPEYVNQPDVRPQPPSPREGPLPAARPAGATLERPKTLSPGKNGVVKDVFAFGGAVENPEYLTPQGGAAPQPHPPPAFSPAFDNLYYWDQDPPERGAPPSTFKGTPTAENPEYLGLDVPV
Description: (§1) Kinase profiling was performed with M27 was done at DiscoveRx at a single dose of 1 μM on all available kinases (KINOMEscan). The overall kinase selectivity score is in Table 6. […] Kinases inhibited >65% at 1 μM for M27 were followed up with a dose response at DiscoveRx. The M27 had IC50 values <1 μM for almost the same set of kinases with exception of TXK, but with additional inhibition of BRK (PTK6).

CYP2C19 = CYP2C19 (Homo sapiens (Human), UniProt P33261); assay: CYP inhibition, CYP2C19; type: in vitro ADME
BTK wild type (BTK-WT) = BTK wild type (BTK-WT) (Homo sapiens (Human), UniProt Q06187); assay: BTK-WT LanthaScreen, inhibition constants from IC50 over time; type: binding
BTK wild type (BTK-WT), sequence (Q06187 whole entry): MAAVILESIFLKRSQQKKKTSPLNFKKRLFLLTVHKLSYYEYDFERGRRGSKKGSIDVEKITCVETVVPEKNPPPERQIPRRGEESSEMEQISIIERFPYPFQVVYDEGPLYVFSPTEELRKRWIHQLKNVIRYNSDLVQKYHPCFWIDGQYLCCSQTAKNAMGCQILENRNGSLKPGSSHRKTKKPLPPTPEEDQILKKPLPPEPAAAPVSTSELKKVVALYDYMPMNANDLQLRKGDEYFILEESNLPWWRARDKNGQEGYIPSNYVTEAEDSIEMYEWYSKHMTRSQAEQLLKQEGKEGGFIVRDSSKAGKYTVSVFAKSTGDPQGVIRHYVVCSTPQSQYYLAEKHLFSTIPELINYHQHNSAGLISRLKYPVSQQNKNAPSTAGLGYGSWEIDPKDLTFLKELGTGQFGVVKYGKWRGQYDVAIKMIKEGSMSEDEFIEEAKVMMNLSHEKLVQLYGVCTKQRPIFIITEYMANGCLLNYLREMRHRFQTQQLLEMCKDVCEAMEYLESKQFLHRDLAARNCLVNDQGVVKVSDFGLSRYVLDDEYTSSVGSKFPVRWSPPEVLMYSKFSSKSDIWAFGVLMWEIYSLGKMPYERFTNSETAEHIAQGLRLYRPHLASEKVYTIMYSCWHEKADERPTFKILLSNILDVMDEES
Description: Inhibitory activity on BTK wild type (BTK-WT) and BTK Cys481Ser mutant (BTK-C481S) was measured using the LanthaScreen assay technology from ThermoFisher according to manufacturer's protocol. BTK-WT or BTK-C481 S (Genscript) were mixed and diluted with Eu-anti-GST antibody (Invitrogen) in Kinase buffer (50 mM Hepes pH 7.5+10 mM MgCl2+1 mM EGTA+0.01% Brij-35) to 15 and 6 nM, respectively. Final concentration in the assay for enzyme and antibody are 5 and 2 nM, respectively. Tracer (Kinase Tracer 236, Invitrogen) is diluted in Kinase buffer to 90 nM. Final concentration in the assay is 30 nM. Serial dilutions log 10 from 1 mM to 3.16 nM of test compounds are made in 100% DMSO. The dilutions in DMSO are then diluted 33-fold in Kinase buffer (50 mM Hepes pH 7.5+10 mM MgCl2+1 mM EGTA+0.01% Brij-35). The assay is performed as follows: 5 μL/well of BTK-WT or BTK-C481S enzyme and EU-anti-GST antibody dilution is mixed with 5 μL/well tracer dilution and 5 μL/well of compound dilution in Kinase buffer. Final compound concentration in the assay ranged from 10 μM to 0.316 nM, with 1% DMSO final concentration in assay. Mixture was incubated at room temperature in the dark and at different times of incubation (5 min, 10 min, 20 min, 30 min, 40 min, 60 min, 90 min, 120 min, 180 min and 300 min) the TR-FRET signal was read at 615 nm and 665 nm. The ratio 665/615 was used to calculate values expressed as percentage of the difference in readout (S/N) of the controls with and without Tracer. IC50 values for each timepoint were determined by curve fitting of the experimental results in Dotmatics. […] The kinetics in covalent binding are determined by affinity of the compound to BTK and by the reactivity of the electrophile. Using the data for M27 from the LanthaScreen assay on BTK-WT, the inhibition constants can be calculated for the parent and the metabolite. […] The Ki and kinact parameters were derived from IC50 values over time, according to the method of Krippendorff et al (J Biomol Screen. 2009, 14(8):913-23) with measured Km=102 nM for the tracer used in the assay.

TXK = TXK (Homo sapiens (Human), UniProt P42681); assay: DiscoveRx Kd dose response, TXK; type: binding
TXK, sequence (P42681 whole entry): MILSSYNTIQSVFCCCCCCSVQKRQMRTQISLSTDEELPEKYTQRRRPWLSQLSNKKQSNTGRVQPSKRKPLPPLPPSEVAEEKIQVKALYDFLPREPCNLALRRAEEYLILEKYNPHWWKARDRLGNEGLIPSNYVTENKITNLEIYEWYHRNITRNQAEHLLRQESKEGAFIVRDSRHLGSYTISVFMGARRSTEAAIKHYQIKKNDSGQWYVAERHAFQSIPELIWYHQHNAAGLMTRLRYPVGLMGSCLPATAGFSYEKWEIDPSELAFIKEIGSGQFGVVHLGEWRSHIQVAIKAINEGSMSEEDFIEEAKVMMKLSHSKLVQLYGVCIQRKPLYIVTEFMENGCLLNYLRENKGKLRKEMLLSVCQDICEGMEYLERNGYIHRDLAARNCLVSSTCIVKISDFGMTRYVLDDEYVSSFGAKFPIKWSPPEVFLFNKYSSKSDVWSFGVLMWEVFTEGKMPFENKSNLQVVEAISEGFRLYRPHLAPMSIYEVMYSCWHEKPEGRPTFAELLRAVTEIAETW
Description: as §1

CYP2D6 = CYP2D6 (Homo sapiens (Human), UniProt P10635); assay: CYP inhibition, CYP2D6; type: in vitro ADME
CYP2D6, sequence (P10635 whole entry): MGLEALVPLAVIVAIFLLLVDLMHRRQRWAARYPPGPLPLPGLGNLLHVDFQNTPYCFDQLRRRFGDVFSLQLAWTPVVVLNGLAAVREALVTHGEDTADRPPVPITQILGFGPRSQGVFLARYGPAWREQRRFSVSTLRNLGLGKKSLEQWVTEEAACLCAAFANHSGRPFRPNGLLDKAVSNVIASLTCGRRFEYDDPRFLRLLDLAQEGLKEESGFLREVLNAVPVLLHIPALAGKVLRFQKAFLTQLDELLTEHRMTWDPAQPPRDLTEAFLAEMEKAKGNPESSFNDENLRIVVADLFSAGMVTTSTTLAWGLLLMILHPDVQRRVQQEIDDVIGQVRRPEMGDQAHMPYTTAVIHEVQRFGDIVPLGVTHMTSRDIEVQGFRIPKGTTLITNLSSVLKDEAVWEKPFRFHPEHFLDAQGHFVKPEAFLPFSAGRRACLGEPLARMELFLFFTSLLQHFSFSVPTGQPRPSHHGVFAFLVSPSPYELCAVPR

TEC = TEC (Homo sapiens (Human), UniProt P42680); assay: TEC LanthaScreen assay; type: binding; settings: 2h incubation
TEC, sequence (P42680 whole entry): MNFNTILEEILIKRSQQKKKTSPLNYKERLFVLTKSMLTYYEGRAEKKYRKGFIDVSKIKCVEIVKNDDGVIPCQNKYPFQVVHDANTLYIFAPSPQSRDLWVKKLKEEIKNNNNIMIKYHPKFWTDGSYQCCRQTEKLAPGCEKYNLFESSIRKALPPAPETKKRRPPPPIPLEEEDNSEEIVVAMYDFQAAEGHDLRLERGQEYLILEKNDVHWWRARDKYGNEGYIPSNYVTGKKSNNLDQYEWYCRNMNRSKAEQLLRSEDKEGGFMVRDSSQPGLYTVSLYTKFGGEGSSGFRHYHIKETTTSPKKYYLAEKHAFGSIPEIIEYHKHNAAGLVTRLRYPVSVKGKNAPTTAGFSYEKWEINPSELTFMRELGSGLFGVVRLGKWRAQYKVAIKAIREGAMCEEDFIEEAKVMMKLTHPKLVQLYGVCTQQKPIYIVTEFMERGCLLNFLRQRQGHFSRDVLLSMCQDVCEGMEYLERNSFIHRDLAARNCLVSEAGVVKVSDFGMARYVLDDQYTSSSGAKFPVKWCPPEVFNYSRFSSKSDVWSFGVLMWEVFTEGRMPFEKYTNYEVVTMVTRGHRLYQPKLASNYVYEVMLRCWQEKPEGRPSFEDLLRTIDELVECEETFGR
Description: TEC enzyme activity is measured using the LanthaScreen assay from ThermoFisher as outlined below.
TEC enzyme (LifeTech # PV3269) and Eu-anti-HIS antibody (Invitrogen # PV5596) are mixed and diluted in kinase buffer (50 mM Hepes pH 7.5+10 mM MgCl2+1 mM EGTA+0.01% Brij-35) to 3 and 6 nM, respectively. Final concentration in the assay for enzyme and antibody are 1 and 2 nM, respectively.
Tracer (Kinase Tracer 178, Invitrogen # PV5593) is diluted in Kinase buffer to 3 nM. Final concentration in the assay is 1 nM.
Serial dilutions log 10 from 1 mM to 3.16 nM of test compounds are made in 100% DMSO. The dilutions in DMSO are then diluted 33-fold in Kinase buffer (50 mM Hepes pH 7.5+10 mM MgCl2+1 mM EGTA+0.01% Brij-35).
The assay is performed as follows: 5 μL/well of TEC enzyme and EU-anti-His antibody dilution is mixed with 5 μL/well tracer dilution and 5 μL/well of compound dilution in Kinase buffer. Final compound concentration in the assay ranged from 10 μM to 0.316 nM, with 1% DMSO final concentration in assay. Following a 2h incubation at room the TR-FRET signal at 615 nm and 665 nm is read. The ratio 665/615 was used to calculate values expressed as percentage of the difference in readout (S/N) of the controls with and without Tracer. IC50 values were determined by curve fitting of the experimental results in Dotmatics.

EGFR, sequence (P00533 25-1210): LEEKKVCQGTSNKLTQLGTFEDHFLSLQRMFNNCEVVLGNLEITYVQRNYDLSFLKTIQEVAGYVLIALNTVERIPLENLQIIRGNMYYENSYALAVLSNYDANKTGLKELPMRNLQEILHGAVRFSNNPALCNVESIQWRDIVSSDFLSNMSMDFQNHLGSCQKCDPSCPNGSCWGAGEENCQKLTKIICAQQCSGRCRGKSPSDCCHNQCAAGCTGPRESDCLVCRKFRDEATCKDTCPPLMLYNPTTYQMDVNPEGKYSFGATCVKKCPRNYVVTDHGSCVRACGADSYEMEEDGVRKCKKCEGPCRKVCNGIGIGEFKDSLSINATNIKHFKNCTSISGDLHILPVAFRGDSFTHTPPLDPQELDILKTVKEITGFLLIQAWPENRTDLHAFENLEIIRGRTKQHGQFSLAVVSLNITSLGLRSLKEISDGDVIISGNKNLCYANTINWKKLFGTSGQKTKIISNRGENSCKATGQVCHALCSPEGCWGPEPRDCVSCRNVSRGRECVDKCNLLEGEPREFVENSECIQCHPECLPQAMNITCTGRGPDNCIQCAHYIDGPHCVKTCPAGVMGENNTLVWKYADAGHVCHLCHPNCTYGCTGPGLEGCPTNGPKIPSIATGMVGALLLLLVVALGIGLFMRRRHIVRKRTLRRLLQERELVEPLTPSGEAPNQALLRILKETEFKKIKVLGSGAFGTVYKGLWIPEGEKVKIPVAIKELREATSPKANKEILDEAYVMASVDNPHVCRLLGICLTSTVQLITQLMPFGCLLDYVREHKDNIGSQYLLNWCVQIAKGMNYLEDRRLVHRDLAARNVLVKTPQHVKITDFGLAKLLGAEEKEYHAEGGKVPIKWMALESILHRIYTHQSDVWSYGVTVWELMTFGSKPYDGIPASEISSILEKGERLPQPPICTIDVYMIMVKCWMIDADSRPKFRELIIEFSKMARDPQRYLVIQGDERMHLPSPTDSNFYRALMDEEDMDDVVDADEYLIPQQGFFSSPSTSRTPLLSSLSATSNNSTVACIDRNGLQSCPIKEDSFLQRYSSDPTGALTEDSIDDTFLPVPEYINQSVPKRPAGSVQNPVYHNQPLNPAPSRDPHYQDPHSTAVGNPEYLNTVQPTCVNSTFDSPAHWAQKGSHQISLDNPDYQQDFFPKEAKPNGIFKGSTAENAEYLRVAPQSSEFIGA

IC50 (EGFR): > 10000 nM | Kd (ERBB2): 120 nM | CYP2C19 inhibition (CYP2C19): weak inhibitor | kinact/KI (BTK wild type (BTK-WT)): 16500 M⁻¹ s⁻¹ | kinact (BTK wild type (BTK-WT); derived from IC50 values over time (Krippendorff method)): 0.0031 ± 0.0003 s⁻¹ | Ki (BTK wild type (BTK-WT); derived from IC50 values over time (Krippendorff method), tracer Km=102 nM): 188 ± 9 nM | Kd (TXK): 1100 nM | CYP2D6 inhibition (CYP2D6): does not inhibit | IC50 (TEC): 345 ± 34 nM
SMILES: CC#CC(=O)NCCCC(=O)c1nc(-c2ccc(C(=O)Nc3ccccn3)cc2)c2c(N)nccn12 [Formula (I), 4-(8-amino-3-(4-(but-2-ynamido)butanoyl)imidazo[1,5-a]pyrazin-1-yl)-N-(pyridin-2-yl)benzamide]
